From patent US20120295907A1, “INSECTICIDAL COMPOUNDS” (SYNGENTA CROP PROTECTION, LLC, priority 2009, published 2012)

Key:
Assay type in all cases: in vivo
Spodoptera littoralis = Spodoptera littoralis (Egyptian Cotton Leafworm) cotton leaf disc spray test; settings: foliar, 72 h, 200 ppm spray on cotton leaf discs, L1 larvae, mortality, feeding behavior, growth regulation 3 DAT
Heliothis virescens = Heliothis virescens (Tobacco Budworm) egg test on artificial diet; settings: 96 h, 200 ppm (concentration in well 18 ppm), eggs 0-24 h old on artificial diet, 4 days, egg mortality, larval mortality, growth regulation
Plutella xylostella = Plutella xylostella (Diamond Back Moth) artificial diet MTP test; settings: 144 h, 200 ppm (concentration in well 18 ppm), L2 larvae, 6 days, larval mortality, growth regulation
Diabrotica balteata = Diabrotica balteata (Corn Root Worm) artificial diet MTP test; settings: 120 h, 200 ppm (concentration in well 18 ppm), L2 larvae, 5 days, larval mortality, growth regulation
Thrips tabaci = Thrips tabaci (Onion Thrips) sunflower leaf disc spray test; settings: foliar, 168 h, 200 ppm spray on sunflower leaf discs, population of mixed ages, 7 days, mortality
Tetranychus urticae = Tetranychus urticae (Two-Spotted Spider Mite) bean leaf disc spray test; settings: foliar, 192 h, 200 ppm spray on bean leaf discs, mite populations of mixed ages, 8 days, egg, larval and adult mortality, read-out: control of Tetranychus urticae
Myzus persicae = Myzus persicae (Green Peach Aphid) sunflower leaf disc spray test; settings: foliar, 144 h, 200 ppm spray on sunflower leaf discs, aphid population of mixed ages, 6 DAT, mortality

Measured: pest or weed control at 200 ppm

COc1c(NC(=O)c2ccccc2C)cccc1C(=O)Nc1c(Cl)cc(C(F)(C(F)(F)F)C(F)(F)C(F)(F)F)cc1Br (stereo not drawn) [B4]
≥ 80%: Spodoptera littoralis | Heliothis virescens | Plutella xylostella | Diabrotica balteata | Thrips tabaci | Tetranychus urticae | Myzus persicae

COc1c(NC(=O)c2ccc(C(F)(F)F)cc2)cccc1C(=O)Nc1c(Cl)cc(C(F)(C(F)(F)F)C(F)(F)F)cc1Cl [E13]
≥ 80%: Spodoptera littoralis | Heliothis virescens | Plutella xylostella | Diabrotica balteata | Thrips tabaci | Tetranychus urticae | Myzus persicae

COc1c(NC(=O)c2ccc(F)cc2Cl)cccc1C(=O)Nc1c(C)cc(C(F)(C(F)(F)F)C(F)(F)C(F)(F)F)cc1C (stereo not drawn) [F30]
≥ 80%: Spodoptera littoralis | Heliothis virescens | Plutella xylostella | Diabrotica balteata | Thrips tabaci | Tetranychus urticae | Myzus persicae

COc1c(NC(=O)c2ccccc2Cl)cccc1C(=O)Nc1c(Cl)cc(C(F)(C(F)(F)F)C(F)(F)C(F)(F)F)cc1Cl (stereo not drawn) [C5]
≥ 80%: Spodoptera littoralis | Heliothis virescens | Plutella xylostella | Diabrotica balteata | Thrips tabaci | Tetranychus urticae | Myzus persicae

CCc1cc(C(F)(C(F)(F)F)C(F)(F)C(F)(F)F)cc(C)c1NC(=O)c1cccc(NC(=O)c2ccnc(Cl)c2)c1OC (stereo not drawn) [A10]
≥ 80%: Spodoptera littoralis | Heliothis virescens | Plutella xylostella | Diabrotica balteata | Thrips tabaci | Tetranychus urticae | Myzus persicae

COc1c(NC(=O)c2ccccc2Br)cccc1C(=O)Nc1c(Cl)cc(C(F)(C(F)(F)F)C(F)(F)C(F)(F)F)cc1Br (stereo not drawn) [B36]
≥ 80%: Spodoptera littoralis | Heliothis virescens | Plutella xylostella | Diabrotica balteata | Thrips tabaci | Tetranychus urticae | Myzus persicae

COc1c(NC(=O)c2ccc([N+](=O)[O-])cc2Cl)cccc1C(=O)Nc1c(Cl)cc(C(F)(C(F)(F)F)C(F)(F)F)cc1Cl [E9]
≥ 80%: Spodoptera littoralis | Heliothis virescens | Plutella xylostella | Diabrotica balteata | Thrips tabaci | Tetranychus urticae | Myzus persicae

COc1c(NC(=O)c2ccc(SC)cc2)cccc1C(=O)Nc1c(Cl)cc(C(F)(C(F)(F)F)C(F)(F)C(F)(F)F)cc1Br (stereo not drawn) [B26]
≥ 80%: Spodoptera littoralis | Heliothis virescens | Plutella xylostella | Diabrotica balteata | Thrips tabaci | Tetranychus urticae | Myzus persicae

CCc1cc(C(F)(C(F)(F)F)C(F)(F)C(F)(F)F)cc(C)c1NC(=O)c1cccc(NC(=O)c2ccc([N+](=O)[O-])cc2)c1OC (stereo not drawn) [A18]
≥ 80%: Spodoptera littoralis | Heliothis virescens | Plutella xylostella | Diabrotica balteata | Thrips tabaci | Tetranychus urticae | Myzus persicae

COc1c(NC(=O)c2ccccc2[N+](=O)[O-])cccc1C(=O)Nc1c(Cl)cc(C(F)(C(F)(F)F)C(F)(F)C(F)(F)F)cc1Br (stereo not drawn) [B80]
≥ 80%: Spodoptera littoralis | Heliothis virescens | Plutella xylostella | Diabrotica balteata | Thrips tabaci | Tetranychus urticae | Myzus persicae

COc1c(NC(=O)c2ccnc(C)c2Cl)cccc1C(=O)Nc1c(Cl)cc(C(F)(C(F)(F)F)C(F)(F)C(F)(F)F)cc1Br (stereo not drawn) [B93]
≥ 80%: Spodoptera littoralis | Heliothis virescens | Plutella xylostella | Diabrotica balteata | Thrips tabaci | Tetranychus urticae | Myzus persicae

COc1c(NC(=O)c2cccc(Cl)c2C)cccc1C(=O)Nc1c(Cl)cc(C(F)(C(F)(F)F)C(F)(F)C(F)(F)F)cc1Br (stereo not drawn) [B156]
≥ 80%: Spodoptera littoralis | Heliothis virescens | Plutella xylostella | Diabrotica balteata | Thrips tabaci | Tetranychus urticae | Myzus persicae

COc1c(NC(=O)c2ccc(Cl)cc2Cl)cccc1C(=O)Nc1c(Cl)cc(C(F)(C(F)(F)F)C(F)(F)C(F)(F)F)cc1Br (stereo not drawn) [B155]
≥ 80%: Spodoptera littoralis | Heliothis virescens | Plutella xylostella | Diabrotica balteata | Thrips tabaci | Tetranychus urticae | Myzus persicae

CCc1cc(C(F)(C(F)(F)F)C(F)(F)C(F)(F)F)cc(C)c1NC(=O)c1cccc(NC(=O)c2ccc(Cl)nc2)c1OC (stereo not drawn) [A17]
≥ 80%: Spodoptera littoralis | Heliothis virescens | Plutella xylostella | Diabrotica balteata | Thrips tabaci | Tetranychus urticae | Myzus persicae

COc1c(NC(=O)c2ccncc2Cl)cccc1C(=O)Nc1c(Cl)cc(C(F)(C(F)(F)F)C(F)(F)C(F)(F)F)cc1Br (stereo not drawn) [B66]
≥ 80%: Spodoptera littoralis | Heliothis virescens | Plutella xylostella | Diabrotica balteata | Thrips tabaci | Tetranychus urticae | Myzus persicae

COc1c(NC(=O)c2ccc(F)cc2)cccc1C(=O)Nc1c(Cl)cc(C(F)(C(F)(F)F)C(F)(F)C(F)(F)F)cc1Cl (stereo not drawn) [C19]
≥ 80%: Spodoptera littoralis | Heliothis virescens | Plutella xylostella | Diabrotica balteata | Thrips tabaci | Tetranychus urticae | Myzus persicae

CCc1cc(C(F)(C(F)(F)F)C(F)(F)F)cc(C)c1NC(=O)c1cccc(NC(=O)c2ccc(F)cc2Cl)c1OC [J27]
≥ 80%: Heliothis virescens | Plutella xylostella | Diabrotica balteata | Thrips tabaci | Tetranychus urticae | Myzus persicae

COc1c(NC(=O)c2ccnc(F)c2)cccc1C(=O)Nc1c(Cl)cc(C(F)(C(F)(F)F)C(F)(F)C(F)(F)F)cc1Br (stereo not drawn) [B151]
≥ 80%: Spodoptera littoralis | Heliothis virescens | Plutella xylostella | Diabrotica balteata | Thrips tabaci | Tetranychus urticae | Myzus persicae

COc1c(NC(=O)c2ccc([N+](=O)[O-])cc2)cccc1C(=O)Nc1c(Cl)cc(C(F)(C(F)(F)F)C(F)(F)F)cc1Cl [E5]
≥ 80%: Spodoptera littoralis | Heliothis virescens | Plutella xylostella | Diabrotica balteata | Thrips tabaci | Tetranychus urticae | Myzus persicae
